Several values for one entry are separate records, joined by “and”; a condition that tells them apart may be missing. Equal entries are not always repeated. Where a SMILES comes first, the peptide text is derived from it. [ ]: non-standard residue; d: D form. The star is where a group is joined. X1 = C[C@@H](N*)[C@@H](O[C@@H]1O[C@H](CO)[C@H](O)[C@H](O)[C@H]1O)c1ccccc1; Dolaproine = CO[C@@H]([C@@H]1CCCN1)[C@@H](C)C(=O)O; Dil = CC[C@H](C)[C@H](NC)[C@@H](CC(=O)O)OC; X2 = C[C@@H](N*)[C@@H](O)c1ccccc1; NMeV = CN[C@H](C(=O)O)C(C)C
System: cancer cells (SKOV-3 and HSC-2)
Assay: Cytotoxicity to cancer cells, PrestoBlue cell viability, 96 h
Settings: for IC50: concentration wherein cancer cell viability falls to 50%, cell line not given
Description: Human ovarian cancer cell line SKOV-3 (ATCC, Manassas, Va., USA) and head-and-neck squamous cell carcinoma cell line HSC-2 (Japanese Collection of Research Bioresources, Osaka, Japan) were grown according to the suppliers' recommendations. Log phase cultures were collected and cells were seeded onto 96-well plates and incubated for 24 h. Serial dilutions of test molecules were added to cells and cultures were incubated further for 96 h. Cell viability was evaluated using PrestoBlue cell viability reagent (Life Technologies, Carlsbad, Calif., USA) according to the manufacturer's instructions. Cells were incubated for 2 h, and dye reduction was measured by absorbance at 570 nm. The compounds were assayed 1-2 times in triplicate.
The results are expressed in Table 1 as IC50 values.

| SMILES | IC50 | Cytotoxicity (in words) (concentrations up to 100 nM) |
| --- | --- | --- |
| CC[C@H](C)[C@@H]([C@@H](CC(=O)N1CCC[C@H]1[C@H](OC)[C@@H](C)C(=O)N[C@H](C)[C@@H](O)c1ccccc1)OC)N(C)C(=O)[C@@H](NC(=O)[C@@H](NC)C(C)C)C(C)C [MMAE, monomethylauristatin E] (H-[NMeV]V[Dil][Dolaproine]-X2) | ~10 nM and 10 nM | – |
| CC[C@H](C)[C@@H]([C@@H](CC(=O)N1CCC[C@H]1[C@H](OC)[C@@H](C)C(=O)N[C@H](C)[C@@H](O[C@@H]1O[C@H](CO)[C@H](O)[C@H](O)[C@H]1O)c1ccccc1)OC)N(C)C(=O)[C@@H](NC(=O)[C@@H](NC)C(C)C)C(C)C [MMAG, O-β-D-galactopyranosylmonomethylauristatin E] (H-[NMeV]V[Dil][Dolaproine]-X1) | > 100 nM | relatively non-toxic |

— patent US10973920B2, “Saccharide derivative of a toxic payload and antibody conjugates thereof” (priority 2014, dated 2021)
